Tests used:
SMN protein [1] = assay: Study BP39055 Part 1: SMN protein in Type 2 and 3 SMA patients; format: in vivo, human
Excerpt: Study BP39055 is a two-part operationally seamless, multi-center, randomized, placebo-controlled, double-blind study to investigate the safety, tolerability, pharmacokinetics (PK), pharmacodynamics (PD) and efficacy of RO7034067 in Type 2 and 3 spinal muscular atrophy (SMA) patients. The study consists of an exploratory dose-finding part (Part 1) and a confirmatory part (Part 2).
The primary objective of Part 1 is to evaluate the safety, tolerability, PK and PD of RO7034067 in patients with Type 2 and Type 3 (ambulant or non-ambulant) SMA, and to select the dose for Part 2 of the study.
Part 1 was a double-blinded, placebo-controlled, randomized (2:1 RO7034067:placebo), exploratory dose-finding study in Type 2 and Type 3 (ambulant and non-ambulant) SMA patients. This will be followed by an open-label extension (OLE) at the same dose as selected for Part 2 of the study.
Part 1 of the study enrolled patients in two age groups: • Group A: adolescent and adult patients aged 12 25 years • Group B: children aged 2 11 years RO7034067 dose levels were investigated in a staggered, dose escalation manner in both age groups.
The dose recommended by the IMC for this age group according to the target AUC0-24 h,ss of 700 ng[…]h/mL was 0.02 mg/kg (see IMC recommendation of 12 Dec. 2016 in Appendix 1); 10 patients aged 3-11 years were enrolled in Cohort B1. • At the same time point (i.e., once safety and tolerability were confirmed based on the review of at least 4 weeks of treatment at 3 mg once daily in 9 patients in Cohort A1), enrolment was opened to another cohort of 9 adult and adolescent patients (Cohort A2) receiving RO7034067 5 mg once daily (see IMC recommendation of 19 Jan. 2017 in Appendix 1). As per protocol, the higher dose level was determined such as to achieve maximum SMN protein increase, without exceeding the exposure cap (Cmax 400 ng/mL; mean AUC0 24 h,ss 2000 ng[…]h/mL); 10 patients aged 13[…]24 years were enrolled in Cohort A2. • Based on the review of a minimum of 4 weeks of treatment at 0.02 mg/kg in 9 patients enrolled in Cohort B1, the following recommendations were made by the IMC: i) to increase the dose in these patients to 0.05 mg/kg without exceeding a cap dose of 3 mg, and ii) to enroll a minimum of 9 additional patients aged 2[…]11 years at a dose of 0.05 mg/kg without exceeding a cap dose of 3 mg (Cohort B2), targeting at least 5 patients aged 2[…]6 years (see IMC recommendation of 13 Mar. […] At the same time point, enrollment was opened to another cohort of 9 patients at the dose of 0.25 mg/kg without exceeding a cap dose of 5 mg (Cohort B3), determined such as to achieve maximum Survival of Motor Neuron (SMN) protein increase, without exceeding the exposure cap (Cmax 400 ng/mL; mean AUC0-24 h,ss 2000 ng[…]h/mL); 10 patients aged 2[…]11 years were enrolled in Cohort B3. • Upon completion of at least 12 weeks of placebo-controlled treatment by a minimum of 9 patients of each cohort, the IMC reviewed all available data from the cohort to make the decision to switch placebo patients to active treatment at the dose tested in their respective cohort. Dates of the IMC decisions to switch placebo patients to active treatment in the respective cohorts are provided in Section 1.3. • For the last cohort in Part 1 (Cohort B3), all available safety, tolerability, PK and PD data following completion of a minimum of 4 weeks treatment by the 9th patient (including all available data for the 10th patient of the last cohort who was enrolled approximately 1 week after the 9th patient, and all available data from all previous cohorts) were reviewed by the IMC in order to select the dose to be administered in Part 2 of the study. This dose selection was confirmed by the external iDMC following review of the same data package. […]

SMN protein [2] = assay: SMN protein (HTRF) in brain and quadriceps muscle of SMNΔ7 mice; format: in vivo
Description: FIG. 1A-FIG. 1D: Increase in SMN Protein Expression In Vivo • HET=heterogygous. • C/C-allele mice and SMNΔ7 mice were treated with RO7034067. One hour after the last dose, brains and quadriceps muscles were collected and levels of SMN protein were assessed by HTRF. FIG. 1A. SMN protein in brains of C/C-allele mice. FIG. 1B. SMN protein in brains of SMNΔ7 mice. FIG. 1C. SMN protein in quadriceps muscle of C/C-allele mice. FIG. 1D. SMN protein in quadriceps muscle of SMNΔ7 mice. Data represent means±SEM of 5-6 animals per group and are expressed as fold change vs. vehicle-treated controls. *=p<0.05, **=p<0.01, ***=p<0.001 vs. untreated controls.
Adult C/C-allele mice were treated for 10 days with vehicle or RO7034067 (1, 3 or 10 mg/kg per os [PO], daily), and PND3 SMNΔ7 mice were treated for 7 days with vehicle or RO7034067 (0.1, 0.3, 1 or 3 mg/kg intraperitoneal [IP], daily). […] In SMNΔ7 mice, the SMN protein increase was only partial in both brain and muscle, reaching approximately 43% (brain) and 55% (muscle) of protein levels in heterozygous mice.

human RPE cells = assay: Lysosomal function in human RPE cells in vitro; format: cell-based

Cc1cn2nc(-c3cc(=O)n4cc(N5CCNC6(CC6)C5)ccc4n3)cc(C)c2n1 [RO7034067, 7-(4,7-diazaspiro[2.5]octan-7-yl)-2-(2,8-dimethylimidazo[1,2-b]pyridazin-6-yl)pyrido[1,2-a]pyrimidin-4-one]
Fold-Increase from the Baseline in SMN Protein on Day 28, median (SMN protein [1]; 0.02 mg): 1.09 fold | Fold-Increase from the Baseline in SMN Protein on Day 28, median (SMN protein [1]; 0.05 mg): 1.51 fold | Fold-Increase from the Baseline in SMN Protein on Day 28, median (SMN protein [1]; 0.15 mg/kg): 1.67 fold | Fold-Increase from the Baseline in SMN Protein on Day 28, median (SMN protein [1]; 0.25 mg/kg): 1.96 fold | SMN protein increase versus baseline (median) (SMN protein [1]; 0.25 mg/kg, 2-11 year age group): 96% | Fold-Increase from the Baseline in SMN Protein on Day 28, median (SMN protein [1]; 3 mg): 2.25 fold | Fold-Increase from the Baseline in SMN Protein on Day 28, median (SMN protein [1]; 5 mg): 2.51 fold | median SMN protein increase versus baseline (SMN protein [1]; 5 mg, SMA patients 12-25 years old): 151% | SMN protein in brain as share of protein levels in heterozygous mice (SMN protein [2]; SMNΔ7 mice, brain): approximately 43% | SMN protein in muscle as share of protein levels in heterozygous mice (SMN protein [2]; SMNΔ7 mice, muscle): ~55% | SMN protein levels in brain and muscle tissue, maximum effect (SMN protein [2]; neonatal SMNΔ7 mice, 1-3 mg/kg IP daily, 7 days): 2-3 fold | increase in SMN protein possible (SMN protein [2]; severe SMNΔ7 mouse model): more than 100% | effect on human RPE cells (human RPE cells): Impairment of lysosomal function/autophagosomal accumulation

From patent publication US12350273B2, “Treatment of SMA” (Hoffmann-La Roche Inc., priority 2017, dated 2025)
